Measurements as given in paper PMC5218480 (PLoS ONE, 2017).

System: MV-4-11 cells
Assay: Gene expression microarray analysis (Affymetrix PrimeView) and GSEA
Assay type: cell-based, human
Parameters: RFU PODN (11730768_x_at) / Fold change /veh PODN (11730768_x_at) / RFU LINC00158 (11744669_a_at) / Fold change /veh LINC00158 (11744669_a_at) / RFU DUSP10 (11751237_a_at) / Fold change /veh DUSP10 (11751237_a_at) / RFU ID3 (11757404_x_at) / Fold change /veh ID3 (11757404_x_at) / RFU PLEKHG5 (11737974_s_at) / Fold change /veh PLEKHG5 (11737974_s_at) / RFU LRRC4B (11730491_at) / Fold change /veh LRRC4B (11730491_at) / RFU GIMAP4 (11747438_a_at) / Fold change /veh GIMAP4 (11747438_a_at) / RFU KRT8 (11758183_x_at) / Fold change /veh KRT8 (11758183_x_at) / RFU CNN1 (11734310_a_at) / Fold change /veh CNN1 (11734310_a_at) / RFU VPS37D (11726825_at) / Fold change /veh VPS37D (11726825_at) / RFU C10orf10 (11716522_x_at) / Fold change /veh C10orf10 (11716522_x_at) / RFU KIR2DL2 /// KIR2DL4 /// KIR2DL5A /// KIR2DL5B /// KIR2DS1 /// KIR2DS2 /// KIR2DS3 /// KIR2DS4 /// KIR3DL3 /// KIR3DL3 /// KIR3DS1 (11738374_at) / Fold change /veh KIR2DL2 /// KIR2DL4 /// KIR2DL5A /// KIR2DL5B /// KIR2DS1 /// KIR2DS2 /// KIR2DS3 /// KIR2DS4 /// KIR3DL3 /// KIR3DL3 /// KIR3DS1 (11738374_at) / RFU C1QL1 (11718748_at) / Fold change /veh C1QL1 (11718748_at) / RFU TMPRSS4 (11747572_a_at) / Fold change /veh TMPRSS4 (11747572_a_at) / RFU HAMP (11756126_x_at) / Fold change /veh HAMP (11756126_x_at) / RFU RNFT2 (11725882_a_at) / Fold change /veh RNFT2 (11725882_a_at) / RFU NR4A2 (11747474_a_at) / Fold change /veh NR4A2 (11747474_a_at) / RFU ABCC12 (11746883_a_at) / Fold change /veh ABCC12 (11746883_a_at) / RFU TMEM136 (11760407_x_at) / Fold change /veh TMEM136 (11760407_x_at) / RFU CLDN22 /// WWC2 (11732394_at) / Fold change /veh CLDN22 /// WWC2 (11732394_at) / RFU HLA-DPB1 (11760878_x_at) / Fold change /veh HLA-DPB1 (11760878_x_at) / RFU SPINT1 (11716480_a_at) / Fold change /veh SPINT1 (11716480_a_at) / RFU GAP43 (11754022_s_at) / Fold change /veh GAP43 (11754022_s_at) / RFU A4GNT (11735810_at) / Fold change /veh A4GNT (11735810_at) / RFU PRB3 (11715151_x_at) / Fold change /veh PRB3 (11715151_x_at) / RFU TUBB4B (11761932_at) / Fold change /veh TUBB4B (11761932_at) / RFU CAPN14 (11732068_a_at) / Fold change /veh CAPN14 (11732068_a_at) / RFU TMCC2 (11721928_a_at) / Fold change /veh TMCC2 (11721928_a_at) / RFU IRGQ (11745062_a_at) / Fold change /veh IRGQ (11745062_a_at) / RFU FAM174B (11720279_a_at) / Fold change /veh FAM174B (11720279_a_at) / RFU TMPRSS4 (11748680_a_at) / Fold change /veh TMPRSS4 (11748680_a_at) / RFU FAM212B (11763350_a_at) / Fold change /veh FAM212B (11763350_a_at) / RFU PLEKHG5 (11743358_a_at) / Fold change /veh PLEKHG5 (11743358_a_at) / RFU ZSCAN30 (11745921_a_at) / Fold change /veh ZSCAN30 (11745921_a_at) / RFU CMKLR1 (11741424_a_at) / Fold change /veh CMKLR1 (11741424_a_at) / RFU LOC101060620 /// MAPK8IP1 (11723275_at) / Fold change /veh LOC101060620 /// MAPK8IP1 (11723275_at) / RFU SPTSSB (11747773_x_at) / Fold change /veh SPTSSB (11747773_x_at) / RFU PRSS12 (11739890_at) / Fold change /veh PRSS12 (11739890_at) / RFU BIN1 (11741810_x_at) / Fold change /veh BIN1 (11741810_x_at) / RFU WNT11 (11732464_a_at) / Fold change /veh WNT11 (11732464_a_at) / RFU C10orf10 (11716521_a_at) / Fold change /veh C10orf10 (11716521_a_at) / RFU C5orf56 (11738089_at) / Fold change /veh C5orf56 (11738089_at) / RFU CYB561 (11721691_x_at) / Fold change /veh CYB561 (11721691_x_at) / RFU ANKRD19P (11752326_a_at) / Fold change /veh ANKRD19P (11752326_a_at) / RFU OR2T12 /// OR2T33 /// OR2T8 (11738714_s_at) / Fold change /veh OR2T12 /// OR2T33 /// OR2T8 (11738714_s_at) / RFU VCAN (11748164_a_at) / Fold change /veh VCAN (11748164_a_at) / RFU JSRP1 (11732532_at) / Fold change /veh JSRP1 (11732532_at) / RFU KRTAP10-11 (11738290_x_at) / Fold change /veh KRTAP10-11 (11738290_x_at) / RFU MYO3A (11730013_a_at) / Fold change /veh MYO3A (11730013_a_at) / RFU EBF3 (11725865_a_at) / Fold change /veh EBF3 (11725865_a_at) / RFU CAMK2N1 (11719241_x_at) / Fold change /veh CAMK2N1 (11719241_x_at) / RFU C5orf56 (11738088_a_at) / Fold change /veh C5orf56 (11738088_a_at) / RFU OLFML3 (11715873_a_at) / Fold change /veh OLFML3 (11715873_a_at) / RFU LOC100653217 /// NTM (11731650_a_at) / Fold change /veh LOC100653217 /// NTM (11731650_a_at) / RFU MAPK11 (11762145_a_at) / Fold change /veh MAPK11 (11762145_a_at) / RFU FIZ1 (11724087_x_at) / Fold change /veh FIZ1 (11724087_x_at) / RFU OASL (11726364_x_at) / Fold change /veh OASL (11726364_x_at) / RFU SOX15 (11748057_x_at) / Fold change /veh SOX15 (11748057_x_at) / RFU CD79A (11719716_a_at) / Fold change /veh CD79A (11719716_a_at) / RFU HIST1H1D (11736915_at) / Fold change /veh HIST1H1D (11736915_at) / RFU CASKIN2 (11723855_a_at) / Fold change /veh CASKIN2 (11723855_a_at) / RFU LOC730098 (11760151_x_at) / Fold change /veh LOC730098 (11760151_x_at) / RFU OR4N2 (11742367_at) / Fold change /veh OR4N2 (11742367_at) / RFU PRRT2 (11749266_a_at) / Fold change /veh PRRT2 (11749266_a_at) / RFU SNX32 (11753110_a_at) / Fold change /veh SNX32 (11753110_a_at) / RFU CDHR5 (11726645_a_at) / Fold change /veh CDHR5 (11726645_a_at) / RFU RCAN1 (11760418_a_at) / Fold change /veh RCAN1 (11760418_a_at) / RFU FAM167A (11723789_a_at) / Fold change /veh FAM167A (11723789_a_at) / RFU FAM26E (11764081_at) / Fold change /veh FAM26E (11764081_at) / RFU ISYNA1 (11749810_s_at) / Fold change /veh ISYNA1 (11749810_s_at) / RFU ACY1 (11761880_at) / Fold change /veh ACY1 (11761880_at) / RFU 11764098_at / Fold change /veh 11764098_at / RFU SAMD14 (11745864_x_at) / Fold change /veh SAMD14 (11745864_x_at) / RFU NPB (11741838_a_at) / Fold change /veh NPB (11741838_a_at) / RFU TMPRSS6 (11731388_a_at) / Fold change /veh TMPRSS6 (11731388_a_at) / RFU KRTAP10-2 (11738614_at) / Fold change /veh KRTAP10-2 (11738614_at) / RFU ARHGAP8 /// PRR5-ARHGAP8 (11727945_x_at) / Fold change /veh ARHGAP8 /// PRR5-ARHGAP8 (11727945_x_at) / RFU KRTAP5-7 /// NADSYN1 (11734609_at) / Fold change /veh KRTAP5-7 /// NADSYN1 (11734609_at) / RFU RASL12 (11751679_a_at) / Fold change /veh RASL12 (11751679_a_at) / RFU CDKN2B (11736163_a_at) / Fold change /veh CDKN2B (11736163_a_at) / RFU PRF1 (11729649_at) / Fold change /veh PRF1 (11729649_at) / RFU, ZNF638 /// ZNF638-IT1 / Fold change vs veh, ZNF638 /// ZNF638-IT1 / RFU, PANK3 / Fold change vs veh, PANK3 / RFU, SH3YL1 / Fold change vs veh, SH3YL1 / RFU, ZEB2 / Fold change vs veh, ZEB2 / RFU, NRIP1 / Fold change vs veh, NRIP1 / RFU, PTTG1IP / Fold change vs veh, PTTG1IP / RFU, CAPN2 / Fold change vs veh, CAPN2 / RFU, MED14 / Fold change vs veh, MED14 / RFU, SNORA58 / Fold change vs veh, SNORA58 / RFU, C1orf63 / Fold change vs veh, C1orf63 / RFU, LRRFIP1 / Fold change vs veh, LRRFIP1 / RFU, NDUFAF7 / Fold change vs veh, NDUFAF7 / RFU, SLC12A2 / Fold change vs veh, SLC12A2 / RFU, IBTK / Fold change vs veh, IBTK / RFU, ESF1 / Fold change vs veh, ESF1 / Fold change vs veh, TMEM50B / RFU, TAOK1 / Fold change vs veh, TAOK1 / RFU, ACBD3 / Fold change vs veh, ACBD3 / RFU, TMA16 / Fold change vs veh, TMA16 / RFU, RWDD3 / Fold change vs veh, RWDD3 / RFU, BCAT1 / Fold change vs veh, BCAT1 / RFU, EDEM3 / Fold change vs veh, EDEM3 / RFU, TMEM33 / Fold change vs veh, TMEM33 / RFU, WDR75 / Fold change vs veh, WDR75 / RFU, AHCTF1 / Fold change vs veh, AHCTF1 / RFU, TFRC / Fold change vs veh, TFRC / RFU, ZDHHC17 / Fold change vs veh, ZDHHC17 / RFU, NOM1 / Fold change vs veh, NOM1 / RFU, ARL8B / Fold change vs veh, ARL8B / RFU, ZBTB11 / Fold change vs veh, ZBTB11 / RFU, TAMM41 / Fold change vs veh, TAMM41 / RFU, KIAA1704 /// LOC100996395 / Fold change vs veh, KIAA1704 /// LOC100996395 / RFU, ING1 / Fold change vs veh, ING1 / RFU, TRMT61B / Fold change vs veh, TRMT61B / RFU, FUBP3 / Fold change vs veh, FUBP3 / RFU, TP53 / Fold change vs veh, TP53 / RFU, TNKS2 / Fold change vs veh, TNKS2 / RFU, ZFP14 / Fold change vs veh, ZFP14 / RFU, ACTR2 / Fold change vs veh, ACTR2 / RFU, PPP3R1 / Fold change vs veh, PPP3R1 / RFU, PIK3R1 / Fold change vs veh, PIK3R1 / RFU, HNRNPA1 / Fold change vs veh, HNRNPA1 / RFU, RNF170 / Fold change vs veh, RNF170 / RFU, ZNF28 / Fold change vs veh, ZNF28 / RFU, RNGTT / Fold change vs veh, RNGTT / RFU, OGT / Fold change vs veh, OGT / RFU, BRD1 / Fold change vs veh, BRD1 / RFU, MARS / Fold change vs veh, MARS / RFU, ZNF655 / Fold change vs veh, ZNF655 / RFU, FAHD1 / Fold change vs veh, FAHD1 / RFU, BDP1 / Fold change vs veh, BDP1 / RFU, LRRCC1 / Fold change vs veh, LRRCC1 / RFU, ARID1A / Fold change vs veh, ARID1A / RFU, ZNF146 / Fold change vs veh, ZNF146 / RFU, ZNF330 / Fold change vs veh, ZNF330 / RFU, GPN3 / Fold change vs veh, GPN3 / RFU, C9orf123 / Fold change vs veh, C9orf123 / RFU, N4BP2L2 / Fold change vs veh, N4BP2L2 / RFU, ARFIP1 / Fold change vs veh, ARFIP1 / RFU, FAM179B / Fold change vs veh, FAM179B / RFU, BCL10 / Fold change vs veh, BCL10 / RFU, UHRF1BP1L / Fold change vs veh, UHRF1BP1L / RFU, BET1 / Fold change vs veh, BET1 / RFU, CNOT2 / Fold change vs veh, CNOT2 / RFU, ZNF268 / Fold change vs veh, ZNF268 / Fold change vs veh, ZNF507 / RFU, DGCR2 / Fold change vs veh, DGCR2 / RFU, WDSUB1 / Fold change vs veh, WDSUB1 / Fold change vs veh, HSP90B1 /// MIR3652 / RFU, ADSS / Fold change vs veh, ADSS / RFU, GK / Fold change vs veh, GK / RFU, ZNF148 / Fold change vs veh, ZNF148 / RFU, TAF9 / Fold change vs veh, TAF9 / RFU, SLC1A5 / Fold change vs veh, SLC1A5 / RFU, SLMO2 / Fold change vs veh, SLMO2 / RFU, ABCC4 / Fold change vs veh, ABCC4 / RFU, LOC101060439 /// RAP1B / Fold change vs veh, LOC101060439 /// RAP1B / RFU, RFX7 / Fold change vs veh, RFX7 / RFU, GTPBP10 / Fold change vs veh, GTPBP10 / RFU, CNEP1R1 / Fold change vs veh, CNEP1R1 / RFU, BIVM-ERCC5 /// ERCC5 / Fold change vs veh, BIVM-ERCC5 /// ERCC5 / RFU, ILF3 / Fold change vs veh, ILF3 / RFU 11762660_at / Fold change /veh 11762660_at / RFU VCAN (11757783_s_at) / Fold change /veh VCAN (11757783_s_at) / RFU DDX43 (11728927_at) / Fold change /veh DDX43 (11728927_at) / RFU KRT8 (11758188_x_at) / Fold change /veh KRT8 (11758188_x_at) / RFU NKD1 (11759106_at) / Fold change /veh NKD1 (11759106_at) / RFU SRD5A1 (11742802_a_at) / Fold change /veh SRD5A1 (11742802_a_at) / RFU TPSAB1 /// TPSB2 (11721975_s_at) / Fold change /veh TPSAB1 /// TPSB2 (11721975_s_at) / RFU GSTM3 (11746129_a_at) / Fold change /veh GSTM3 (11746129_a_at) / RFU IL23R (11737362_x_at) / Fold change /veh IL23R (11737362_x_at) / RFU TMEM51 (11727254_a_at) / Fold change /veh TMEM51 (11727254_a_at) / RFU PIWIL2 (11732686_x_at) / Fold change /veh PIWIL2 (11732686_x_at) / RFU ORM1 (11744905_x_at) / Fold change /veh ORM1 (11744905_x_at) / RFU CCDC152 (11743942_at) / Fold change /veh CCDC152 (11743942_at) / RFU ECM1 (11717891_a_at) / Fold change /veh ECM1 (11717891_a_at) / RFU IL23R (11748794_a_at) / Fold change /veh IL23R (11748794_a_at) / RFU TNFAIP8L3 (11732012_x_at) / Fold change /veh TNFAIP8L3 (11732012_x_at) / RFU MBOAT4 (11741988_at) / Fold change /veh MBOAT4 (11741988_at) / RFU 11764193_at / Fold change /veh 11764193_at / RFU TMEM53 (11763286_at) / Fold change /veh TMEM53 (11763286_at) / RFU MAGEB2 (11727129_at) / Fold change /veh MAGEB2 (11727129_at) / RFU TMEM200A (11744735_a_at) / Fold change /veh TMEM200A (11744735_a_at) / RFU CCDC152 (11751479_a_at) / Fold change /veh CCDC152 (11751479_a_at) / RFU FAM211A (11726209_a_at) / Fold change /veh FAM211A (11726209_a_at) / RFU RGS16 (11746705_a_at) / Fold change /veh RGS16 (11746705_a_at) / RFU VCAN (11755009_s_at) / Fold change /veh VCAN (11755009_s_at) / RFU RHOB (11743442_s_at) / Fold change /veh RHOB (11743442_s_at) / RFU RGS16 (11720943_a_at) / Fold change /veh RGS16 (11720943_a_at) / RFU RGS16 (11720944_at) / Fold change /veh RGS16 (11720944_at) / RFU, VPS4B / Fold change vs veh, VPS4B / RFU, CREB1 / Fold change vs veh, CREB1 / RFU, DNAJC13 / Fold change vs veh, DNAJC13 / RFU, GNAQ / Fold change vs veh, GNAQ / RFU, CDK5R1 / Fold change vs veh, CDK5R1 / RFU, ZRANB3 / Fold change vs veh, ZRANB3 / RFU, CUL4A / Fold change vs veh, CUL4A / RFU, CCNY / Fold change vs veh, CCNY / RFU, UFL1 / Fold change vs veh, UFL1 / RFU, COG3 / Fold change vs veh, COG3 / RFU, DIAPH2 / Fold change vs veh, DIAPH2 / RFU, SKA2 / Fold change vs veh, SKA2 / RFU, AFF3 / Fold change vs veh, AFF3 / RFU, LMF1 / Fold change vs veh, LMF1 / RFU, IPO11 / Fold change vs veh, IPO11 / RFU, DFFB / Fold change vs veh, DFFB / RFU, FOXP1 / Fold change vs veh, FOXP1 / RFU, CARD8 / Fold change vs veh, CARD8 / RFU, STRN3 / Fold change vs veh, STRN3 / RFU, ADK / Fold change vs veh, ADK / RFU, RASSF2 / Fold change vs veh, RASSF2 / RFU, WIPF1 / Fold change vs veh, WIPF1 / RFU, LARP1B / Fold change vs veh, LARP1B / RFU, RASA1 / Fold change vs veh, RASA1 / RFU, RB1 / Fold change vs veh, RB1 / RFU, PPFIA1 / Fold change vs veh, PPFIA1 / RFU, MAT2A / Fold change vs veh, MAT2A / RFU, CCT5 / Fold change vs veh, CCT5 / RFU, WDR92 / Fold change vs veh, WDR92 / RFU, CUX1 / Fold change vs veh, CUX1 / RFU, TTC7A / Fold change vs veh, TTC7A / RFU, TMEM135 / Fold change vs veh, TMEM135 / RFU, DEPTOR / Fold change vs veh, DEPTOR / RFU, CPM / Fold change vs veh, CPM / RFU, DNAJB6 / Fold change vs veh, DNAJB6 / RFU, CACNA2D3 / Fold change vs veh, CACNA2D3 / RFU, DTX4 / Fold change vs veh, DTX4 / RFU, TFCP2 / Fold change vs veh, TFCP2 / RFU, GMCL1 /// GMCL1P1 / Fold change vs veh, GMCL1 /// GMCL1P1 / RFU, AEBP2 / Fold change vs veh, AEBP2 / RFU, SNHG1 /// SNORD22 /// SNORD25 /// SNORD26 /// SNORD27 /// SNORD28 /// SNORD29 /// SNORD31 / Fold change vs veh, SNHG1 /// SNORD22 /// SNORD25 /// SNORD26 /// SNORD27 /// SNORD28 /// SNORD29 /// SNORD31 / Fold change (Aza/veh), C12orf56 (ProbeSet 11735607_a_at) / Fold change (ACY-1035/veh), C12orf56 (ProbeSet 11735607_a_at) / Fold change (Aza/veh), FGFR1OP (ProbeSet 11751329_s_at) / Fold change (ACY-1035/veh), FGFR1OP (ProbeSet 11751329_s_at) / Fold change (Aza/veh), VPS36 (ProbeSet 11739960_a_at) / Fold change (ACY-1035/veh), VPS36 (ProbeSet 11739960_a_at) / RFU SYPL1 (11715823_x_at) / Fold change /veh SYPL1 (11715823_x_at) / RFU IGFBP7 (11715501_s_at) / Fold change /veh IGFBP7 (11715501_s_at) / RFU REEP3 (11722064_at) / Fold change /veh REEP3 (11722064_at) / RFU IGLL1 (11728026_x_at) / Fold change /veh IGLL1 (11728026_x_at): dose or concentration left out as unconfirmed
Settings: MV-4-11 cells, 48 hours

For `Nc1ccc(-c2cccs2)cc1NC(=O)c1ccc2c(c1)cc(C1CC1)n2CCN1CCOCC1` [ACY-1035], the “Fold change /veh TNFAIP8L3 (11732012_x_at)” value was 1.18.
